{"source": "patent US4676822A", "about": "“Fluid fertilizers containing thiophosphoryl triamide” (Tennessee Valley Authority, priority 1986, dated 1987)", "assay": "Stability of TPTA in solid mixtures with urea (HPLC)", "format": "physicochemical", "details": "solid 90% urea-10% TPTA, P(H2O) 12.73 mm Hg", "method": "Solid samples (0.25 g) of urea-TPTA mixtures (90 weight percent urea-10 weight precent TPTA) were weighed into a 10-mL beaker, carefully spread into an even layer in the bottom of the beaker, and heated in a forced draft oven at temperatures of 42°, 50°, and 60° C. Samples were contained in desiccators inside the oven, each desiccator conataining a sodium hydroxide solution to yield a partial pressure of water of 12.73 mm Hg at the temperature employed. After heating, the samples were analyzed by High Performance Liquid Chromatography (HPLC) to determine the percent of the original TPTA remaining.\nThe calculated decomposition rate for 25° C., which was determined from an Arrhenius plot of the 42°, 50°, and 60° C. data are also illustrated in FIG. 2, supra. From a perusal of FIG. 2 it is clearly evident that the shelf life of urea-TPTA mixtures is of extremely short duration."}
{"smiles": "NP(N)(N)=S", "note": "[TPTA, thiophosphoryl triamide]", "values": [{"measurement": "% of original TPTA remaining", "setting": "42° C., heating time 0.00 hr", "result": 100.00, "unit": "%"}, {"measurement": "% of original TPTA remaining", "setting": "42° C., heating time 2.00 hr", "result": 94.78, "unit": "%"}, {"measurement": "% of original TPTA remaining", "setting": "42° C., heating time 4.00 hr", "result": 83.48, "unit": "%"}, {"measurement": "% of original TPTA remaining", "setting": "42° C., heating time 5.00 hr", "result": 79.80, "unit": "%"}, {"measurement": "% of original TPTA remaining", "setting": "42° C., heating time 7.00 hr", "result": 60.03, "unit": "%"}, {"measurement": "% of original TPTA remaining", "setting": "42° C., heating time 9.0 hr", "result": 53.44, "unit": "%"}, {"measurement": "% of original TPTA remaining", "setting": "42° C., heating time 9.75 hr", "result": 42.06, "unit": "%"}, {"measurement": "% of original TPTA remaining", "setting": "42° C., heating time 14.25 hr", "result": 30.69, "unit": "%"}, {"measurement": "% of original TPTA remaining", "setting": "42° C., heating time 16.00 hr", "result": 8.69, "unit": "%"}, {"measurement": "% of original TPTA remaining", "setting": "42° C., heating time 18.00 hr", "result": 5.11, "unit": "%"}, {"measurement": "% of original TPTA remaining", "setting": "50° C., heating time 0.00 hr", "result": 100.00, "unit": "%"}, {"measurement": "% of original TPTA remaining", "setting": "50° C., heating time 1.01 hr", "result": 97.17, "unit": "%"}, {"measurement": "% of original TPTA remaining", "setting": "50° C., heating time 2.00 hr", "result": 93.80, "unit": "%"}, {"measurement": "% of original TPTA remaining", "setting": "50° C., heating time 3.00 hr", "result": 85.92, "unit": "%"}, {"measurement": "% of original TPTA remaining", "setting": "50° C., heating time 4.00 hr", "result": 71.31, "unit": "%"}, {"measurement": "% of original TPTA remaining", "setting": "50° C., heating time 5.00 hr", "result": 53.40, "unit": "%"}, {"measurement": "% of original TPTA remaining", "setting": "50° C., heating time 6.00 hr", "result": 34.26, "unit": "%"}, {"measurement": "% of original TPTA remaining", "setting": "50° C., heating time 7.00 hr", "result": 23.40, "unit": "%"}, {"measurement": "% of original TPTA remaining", "setting": "50° C., heating time 8.00 hr", "result": 10.56, "unit": "%"}, {"measurement": "% of original TPTA remaining", "setting": "60° C., heating time 0.00 hr", "result": 100.00, "unit": "%"}, {"measurement": "% of original TPTA remaining", "setting": "60° C., heating time 1.00 hr", "result": 94.07, "unit": "%"}, {"measurement": "% of original TPTA remaining", "setting": "60° C., heating time 2.00 hr", "result": 71.98, "unit": "%"}, {"measurement": "% of original TPTA remaining", "setting": "60° C., heating time 3.00 hr", "result": 32.26, "unit": "%"}, {"measurement": "% of original TPTA remaining", "setting": "60° C., heating time 4.00 hr", "result": 3.46, "unit": "%"}, {"measurement": "% of original TPTA remaining", "setting": "60° C., heating time 5.00 hr", "result": 0.00, "unit": "%"}, {"measurement": "% of original TPTA remaining", "setting": "60° C., heating time 6.00 hr", "result": 0.00, "unit": "%"}]}
